Assay [1] can be described thus: ICV feeding studies, change in food intake and body weight. Type of assay: in vivo, rat. As to conditions: 1 nmol, male Sprague-Dawley rats; for change in weight: 24 hour. Here is the method: (§1) Change in food intake and body weight was evaluated for selected compounds. Male Sprague-Dawley rats weighing ˜300 g at the beginning of the experiment were kept on a 12 hour on/off light cycle. Lights out was adjusted to 12:00 p.m. to allow for dosing just prior to the start of their dark period. Rats (8-12/group) were fed powdered chow and water ad libitum. For 1 week before treatment, 24-hour food intake and body weight change was recorded to assess a baseline for the group during vehicle treatment. The rats were dosed ICV with vehicle or selected compounds (1-3 nmol). The changes in body weight and food intake for the 24 hour period after dosing were determined. The changes in body weight and food intake for the 48 hour period, and in same cases for 72 hours as well, after dosing were also measured to determined reversal of changes in body weight and food intake effect back to baseline.

Assay [2] deals with T1, MC5-R (HEK-293 cells expressing MC5-R) (Homo sapiens, UniProt P33032).
T1 construct: expressed in transfected cells; host or cells: HEK-293
Nature of the assay: cAMP assay for agonist/antagonist status. Particulars: antagonism = inhibition of α-MSH-induced cAMP. Type of assay: cell-based. The procedure: (§2) Functional evaluation of compounds at melanocortin receptors was performed by measuring the accumulation of intracellular cAMP in HEK-293 cells expressing MC3-R, MC4-R or MC5-R, and in B-16 mouse melanoma cells (containing MC1-R). Cells, suspended in Earle's Balanced Salt Solution containing 10 mM HEPES, pH 7.5, 5 mM MgCl2, 1 mM glutamine, 0.1% albumin and 0.6 mM 3-isobutyl-1-methyl-xanthine, a phosphodiesterase inhibitor, were plated in 96 well plates at a density of 0.5×10^5 cells per well. Cells were incubated with the test compounds in the presence or absence of α-MSH for 1 hour at 37° C. cAMP levels were measured by EIA (Amersham) in the cell lysates. Data analysis and EC50 values were determined using nonlinear regression analysis with Prism Graph-Pad software.
(§3) The agonist/antagonist status with respect to MC4-R of certain compounds of the invention was determined. Antagonistic activity was determined by measuring the inhibition of α-MSH-induced cAMP levels following exposure to the compounds as in Example 2.

In assay [3] the target is T2, MC1-R (B-16 mouse melanoma cells) (Mus musculus, UniProt Q01727).
T2 construct: B-16 mouse melanoma cells (containing MC1-R); endogenous in cells; host or cells: B-16 mouse melanoma cells
Put plainly: cAMP assay for agonist/antagonist status. Type of assay: cell-based. As to conditions: antagonism = inhibition of α-MSH-induced cAMP. The procedure: as §2, §3
(In general: Changes in cAMP serve as a functional read-out for many G protein-coupled receptors.)

Assay [4] addresses T3, MC4-R (HEK-293 cells expressing MC4-R) (Homo sapiens, UniProt P32245).
T3 construct: expressed in transfected cells; host or cells: HEK-293
Nature of the assay: cAMP assay for agonist/antagonist status. Particulars: antagonism = inhibition of α-MSH-induced cAMP. It counts as cell-based. The procedure:
as §2, §3

A short description of assay [5]: penile erection (PE) studies in male rats. Type of assay: in vivo, rat. As to conditions: IV. Here is the method:
The ability of compounds to induce penile erection (PE) in male rats was evaluated with selected compounds. Male Sprague-Dawley rats weighing 200-250 g were kept on a 12 hour on/off light cycle with food and water ad libitum. All behavioral studies were performed between 10 a.m. and 5 p.m. Groups of 4-8 rats were treated with compounds at a variety of doses via intravenous (IV) or intracerebroventricular (ICV) routes. Immediately after treatment, rats were placed into individual polystyrene cages (27 cm long, 16 cm wide, and 25 cm high) for behavioral observation. The iv and icv treated rats were observed respectively for 30 minutes and 120 min and the number of yawns, grooming bouts and PEs were recorded in 10-minute bins.

The next assay deals with T4, hMC3-R (Homo sapiens, UniProt P41968).
T4 construct: expressed in transfected cells
Nature of the assay: competitive inhibition binding assay, 125I-NDP-α-MSH, membranes. As to conditions: for inhibition at 1 µM: 1 μM compound, average of triplicates, read-out: Inhibition at 1 μM MC3-R. The procedure: (§4) A competitive inhibition binding assay was conducted using membranes prepared from hMC3-R, hMC4-R, hMC5-R, and B-16 mouse melanoma cells (containing MC1-R) using 0.4 nM ^125I-NDP-α-MSH (New England Nuclear, Boston, Mass., USA) in 50 mM HEPES buffer containing 1 mM MgCl2, 2 mM CaCl2, and 5 mM KCl, at pH 7.2. The assay tube also contained a chosen concentration of the test compound of this invention, for determining its efficacy in inhibiting the binding of ^125I-NDP-α-MSH to its receptor.
(§5) Incubation was for 90 minutes at room temperature, after which the assay mixture was filtered and the membranes washed three times with ice cold buffer. The filter was dried and counted in a gamma counter for remaining radioactivity bound to the membranes. 100% specific binding was defined as the difference in radioactivity (cpm) bound to cell membranes in the absence and presence of 1 μM α-MSH. […] Each assay was conducted in triplicate and the actual mean values are described. The Ki (nM) of certain compounds of the invention were determined.

In another assay the target is T5, hMC4-R (Homo sapiens, UniProt P32245).
T5 construct: expressed in transfected cells
Described as above. Particulars: for inhibition at 1 µM: 1 μM compound, average of triplicates, read-out: Inhibition at 1 μM MC4-R; for Ki: read-out: Ki (nM) MC4-R. Here is the method: as §4, §5

Another assay has as its target T6, hMC5-R (Homo sapiens, UniProt P33032).
T6 construct: expressed in transfected cells
Described as above. Particulars: for inhibition at 1 µM: 1 μM compound, average of triplicates, read-out: Inhibition at 1 μM MC5-R; for Ki: read-out: Ki (nM) MC5-R. Here is the method:
as §4, §5

Assay [6] concerns the target T2, MC1-R (B-16 mouse melanoma cells). The description is as above. Particulars: for inhibition at 1 µM: 1 μM compound, average of triplicates, results less than 0% reported as 0%. Here is the method:
as §4, §5

Assay [7] in a line: IV feeding studies, change in food intake and body weight. Type of assay: in vivo, rat. As to conditions: 3 μg/Kg, male Sprague-Dawley rats; for change in weight: 24 hour. Here is the method: as §1, with “The rats were dosed ICV with vehicle or selected compounds (1-3 nmol).” left out
Setting [8] is: 1 μg/Kg, 30 minutes observation, stated below baseline.

Molecules are shown by their SMILES. Where two headings read alike, the source gives them in different places.

T2 sequence (Q01727 whole entry): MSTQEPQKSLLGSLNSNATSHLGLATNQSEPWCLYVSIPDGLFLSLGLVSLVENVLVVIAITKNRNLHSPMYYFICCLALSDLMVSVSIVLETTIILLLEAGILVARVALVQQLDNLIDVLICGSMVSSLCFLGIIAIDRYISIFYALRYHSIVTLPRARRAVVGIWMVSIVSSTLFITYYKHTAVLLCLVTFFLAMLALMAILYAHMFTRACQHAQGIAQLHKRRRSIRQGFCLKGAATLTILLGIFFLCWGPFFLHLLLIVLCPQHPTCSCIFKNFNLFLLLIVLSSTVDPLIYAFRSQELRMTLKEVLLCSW
T6 sequence (P33032 whole entry): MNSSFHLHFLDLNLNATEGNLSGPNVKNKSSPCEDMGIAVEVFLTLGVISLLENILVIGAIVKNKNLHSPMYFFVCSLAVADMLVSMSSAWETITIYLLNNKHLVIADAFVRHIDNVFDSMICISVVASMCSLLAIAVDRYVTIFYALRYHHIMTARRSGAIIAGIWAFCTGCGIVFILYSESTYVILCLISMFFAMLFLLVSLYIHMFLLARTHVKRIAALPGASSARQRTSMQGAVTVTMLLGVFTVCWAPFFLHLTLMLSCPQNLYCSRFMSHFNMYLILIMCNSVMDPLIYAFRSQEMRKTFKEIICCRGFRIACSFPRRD
T1 sequence (P33032 whole entry): as above
T4 sequence (P41968 whole entry): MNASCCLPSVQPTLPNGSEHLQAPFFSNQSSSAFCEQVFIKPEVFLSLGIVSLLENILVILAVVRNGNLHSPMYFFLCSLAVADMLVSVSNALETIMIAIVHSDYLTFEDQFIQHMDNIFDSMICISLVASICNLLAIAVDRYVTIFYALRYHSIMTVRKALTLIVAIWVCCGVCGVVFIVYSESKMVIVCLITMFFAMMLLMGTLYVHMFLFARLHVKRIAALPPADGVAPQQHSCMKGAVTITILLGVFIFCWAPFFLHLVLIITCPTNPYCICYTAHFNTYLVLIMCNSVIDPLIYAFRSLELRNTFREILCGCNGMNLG
T3 sequence (P32245 whole entry): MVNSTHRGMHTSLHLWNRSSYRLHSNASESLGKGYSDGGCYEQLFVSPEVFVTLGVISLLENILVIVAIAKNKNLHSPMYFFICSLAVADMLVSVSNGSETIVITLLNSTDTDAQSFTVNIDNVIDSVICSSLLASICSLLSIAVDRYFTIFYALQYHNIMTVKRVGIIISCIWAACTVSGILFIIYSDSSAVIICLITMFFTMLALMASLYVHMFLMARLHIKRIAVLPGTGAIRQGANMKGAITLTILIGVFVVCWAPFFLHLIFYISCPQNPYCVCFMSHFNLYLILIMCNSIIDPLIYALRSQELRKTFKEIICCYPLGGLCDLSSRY
T5 sequence (P32245 whole entry): as above

As to `NCCCC[C@H]1C(=O)N(CCc2ccc3ccccc3c2)CCN1C(=O)[C@@H](Cc1ccc(Cl)cc1Cl)NC(=O)/C=C/c1ccccc1` [Example 8], the “24 hour change in food intake” value in assay [1] was -10.1 g. In [1], this compound gave a change in weight of -9.91 g. The “agonist/antagonist status as to MC5-R” value in assay [2] is recorded as “agonist”. For the same compound, the “agonist/antagonist status as to MC1-R” value in [3] is recorded as “antagonist”. Further, in assay [4], the “agonist/antagonist status as to MC4-R” value is on record as “antagonist”. The “mean PE” value in [5] (setting [8]) was determined as 0.13. The inhibition at 1 µM at hMC3-R was 46%; on hMC4-R, 96%; at hMC5-R it was 60%; in [6], 30%. For the same compound, the Ki at hMC3-R (bound printed in μM in a Ki (nM) table, read-out: Ki MC3-R) was over 1 µM; at hMC4-R it was 13 nM; at hMC5-R it was 410 nM; in assay [6] (bound printed in μM in a Ki (nM) table, read-out: Ki MC1-R) it was over 1 µM.

As for `NCCCC[C@H]1C(=O)N(CCc2ccc3ccccc3c2)CCN1C(=O)[C@@H](Cc1ccc(Cl)cc1Cl)NC(=O)c1ccc(Oc2ccccc2)cc1` [Example 10], the “24 hour change in food intake” value in assay [1] was -0.6 g. The change in weight in [1] is -1.73 g. In assay [2], the “agonist/antagonist status as to MC5-R” value was “agonist”. Further, the “agonist/antagonist status as to MC1-R” value in assay [3] is reported as “antagonist”. Also, the “agonist/antagonist status as to MC4-R” value in assay [4] is “antagonist”. The “mean PE” value amounted to 0.14 in assay [5] (setting [8]) and 0.25 in assay [5] (50 μg/Kg, stated not statistically relevant). Also, the figures for the inhibition at 1 µM on hMC3-R, at hMC4-R and at hMC5-R were 51%, 99% and 51%, respectively. In addition, the Ki came to 0.15 µM at hMC3-R (read-out: Ki (nM) MC3-R), 1 nM on hMC4-R, 282 nM at hMC5-R and 0.915 µM in assay [6] (read-out: Ki (nM) MC1-R).

With `C[C@@H]1CN(C(=O)[C@H](N)Cc2ccc(Cl)cc2)[C@@H](CCCNC(=N)N)CN1CCc1ccc2ccccc2c1` [Example 15, N-{3-[1-[2(R)-Amino-3-(4-chloro-phenyl)-propionyl]-5(R)-methyl-4-(2-naphthalen-2-yl-ethyl)-piperazin-2(S)-yl]-propyl}-guanidine], the results for the “24 hour change in food intake” value in assay [7] and in assay [1] were -9.6 g and -3.9 g, respectively. Moreover, the change in weight was -6.6 g in [7] and -3.9 g in assay [1]. Also, in assay [2], the “agonist/antagonist status as to MC5-R” value is reported as “agonist”. In assay [3], the “agonist/antagonist status as to MC1-R” value is given as “agonist”. The “agonist/antagonist status as to MC4-R” value in assay [4] is listed as “agonist”. The PE effect entry in assay [5] (dose levels of 0.3, 3 and 30 μg/Kg) was “no observed effect”. For the same compound, the inhibition at 1 µM at hMC3-R came to 61%; on hMC4-R, 97%; at hMC5-R it was 52%; in [6], 85%. Moreover, the Ki came to 0.16 µM on hMC3-R (read-out: Ki (nM) MC3-R), 11 nM on hMC4-R, 551 nM at hMC5-R and 0.094 µM in assay [6] (read-out: Ki (nM) MC1-R).

As to `Cc1ccc(C[C@@H](N)C(=O)N2C[C@@H](C)N(CCc3ccc4ccccc4c3)C[C@@H]2CCCNC(=N)N)c(C)c1` [Example 16, N-{3-[1-[2(R)-Amino-3-(2,4-dimethyl-phenyl)-propionyl]-5(R)-methyl-4-(2-naphthalen-2-yl-ethyl)-piperazin-2(S)-yl]-propyl}-guanidine], the “24 hour change in food intake” value in assay [7] was -7.3 g; in assay [1] it was -2.6 g. Also, the figures for the change in weight in assay [7] and in assay [1] were -6.3 g and -5 g, respectively. In addition, the “agonist/antagonist status as to MC4-R” value in [4] is reported as “agonist”. Also, the inhibition at 1 µM at hMC3-R was 67%; on hMC4-R, 98%; on hMC5-R, 73%; in assay [6] it was 22%. Besides, the Ki on hMC3-R (read-out: Ki (nM) MC3-R) is 0.157 µM; on hMC4-R it was 11 nM; on hMC5-R, 717 nM; in assay [6] (read-out: Ki (nM) MC1-R), 1.22 µM.

`C[C@H]1CN(CCc2ccc3ccccc3c2)C[C@H](CCCNC(=N)N)N1C(=O)[C@H](N)Cc1ccc(Cl)cc1Cl` [Example 17 (S)-CH3, N-{3-[1-[2(R)-Amino-3-(2,4-dichloro-phenyl)-propionyl]-6(S)-methyl-4-(2-naphthalen-2-yl-ethyl)-piperazin-2(S)-yl]-propyl}-guanidine]: the “agonist/antagonist status as to MC5-R” value in [2] is “inactive”. The “agonist/antagonist status as to MC1-R” value in assay [3] was “agonist”. The “agonist/antagonist status as to MC4-R” value in assay [4] is “agonist”. For the same compound, the inhibition at 1 µM at hMC3-R is 47%; on hMC4-R, 97%; on hMC5-R, 64%; in assay [6], 3%. The Ki was 0.551 µM on hMC3-R (read-out: Ki (nM) MC3-R), 21 nM at hMC4-R, 602 nM on hMC5-R and 3.18 µM in [6] (read-out: Ki (nM) MC1-R).

As a reminder, the inhibition is the relative decrease from the control value, in per cent. For orientation: Ki means a measure of affinity in units of concentration, obtained from inhibition or displacement.

The record behind these values is US7732451B2, “Naphthalene-containing melanocortin receptor-specific small molecule” (Palatin Technologies, Inc., priority 2002, dated 2010).
